Measurements: patent US9416102B2, “(22E)-2-methylene-22-dehydro-1α,24,25-trihydroxy-19-nor-vitamin D3 analogs” (Wisconsin Alumni Research Foundation, priority 2013, dated 2016)

Columns and labels:
[1] = tested on: Human promyelocytic leukemia (HL-60) cells; test: HL-60 differentiation (nitro blue tetrazolium reduction); assay type: cell-based; conditions: relative to 1,25(OH)2D3; FIG. 2
Protocol: The study drugs were dissolved in ethanol and the concentrations determined using UV spectrophotometry. Serial dilutions were prepared so that a range of drug concentrations could be tested without changing the final concentration of ethanol (≦0.2%) present in the cell cultures.
Human promyelocytic leukemia (HL-60) cells were grown in RPMI-1640 medium containing 10% fetal bovine serum. The cells were incubated at 37° C. in the presence of 5% CO2.
HL-60 cells were plated at 1.2×10^5 cells/ml. Eighteen hours after plating, cells in duplicate were treated with drug. Four days later, the cells were harvested and a nitro blue tetrazolium reduction assay was performed (Collins et al., 1979; J. Exp. Med. 149:969-974). The percentage of differentiated cells was determined by counting a total of 200 cells and recording the number that contained intracellular black-blue formazan deposits. Verification of differentiation to monocytic cells was determined by measuring phagocytic activity (data not shown).

[2] = tested on: ovariectomized (OVX) Sprague-Dawley female rats; test: Ovariectomized rat model, bone strength testing (3-point bending); assay type: in vivo; conditions: 60 ng/kg body weight once daily for 17 weeks, FIG. 6
Protocol: Virgin Sprague-Dawley female rats were either sham-operated or ovariectomized (OVX) at 4 months of age by the vendor (Harlan). Starting at 16 weeks post-surgery, the animals were given vehicle or test analog (WT or 2MD) once daily for 17 weeks. Bone mineral density (BMD) and serum and urinary calcium levels were assessed periodically throughout the study. At termination, femurs were collected for bone strength testing (3-point bending, Numira Biosciences).

[3] = molecular target: T1, Full-length recombinant rat receptor (vitamin D receptor, VDR) (Rattus norvegicus, UniProt P13053); test: Vitamin D receptor competitive binding; conditions: relative to 1,25(OH)2D3, FIG. 1; for competition for binding to the VDR compared to the native hormone: in words
T1 construct: Full-length recombinant rat receptor was expressed in E. coli; histidine tag (C); made in house; host or cells: E. coli BL21(DE3) Codon Plus RIL
T1 sequence (P13053 1-423): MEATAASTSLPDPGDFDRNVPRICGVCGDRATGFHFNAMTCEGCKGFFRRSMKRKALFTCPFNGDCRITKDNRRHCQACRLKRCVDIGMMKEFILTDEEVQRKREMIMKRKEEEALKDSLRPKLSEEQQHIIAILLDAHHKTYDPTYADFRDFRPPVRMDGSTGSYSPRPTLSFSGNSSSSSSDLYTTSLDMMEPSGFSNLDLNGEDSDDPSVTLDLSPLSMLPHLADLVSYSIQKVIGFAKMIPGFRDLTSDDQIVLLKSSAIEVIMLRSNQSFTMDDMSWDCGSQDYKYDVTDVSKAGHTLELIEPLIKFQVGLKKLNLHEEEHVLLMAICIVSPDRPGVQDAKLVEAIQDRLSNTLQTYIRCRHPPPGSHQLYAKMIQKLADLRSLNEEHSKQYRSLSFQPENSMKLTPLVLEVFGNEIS
Text: Vitamin D Receptor Binding
Full-length recombinant rat receptor was expressed in E. coli BL21(DE3) Codon Plus RIL cells and purified to homogeneity using two different column chromatography systems. The first system was a nickel affinity resin that utilizes the C-terminal histidine tag on this protein. The protein that was eluted from this resin was further purified using ion exchange chromatography (S-Sepharose Fast Flow). Aliquots of the purified protein were quick frozen in liquid nitrogen and stored at −80° C. until use. For use in binding assays, the protein was diluted in TEDK50 (50 mM Tris, 1.5 mM EDTA, pH 7.4, 5 mM DTT, 150 mM KCl) with 0.1% Chaps detergent. The receptor protein and ligand concentration was optimized such that no more than 20% of the added radiolabeled ligand was bound to the receptor.
Unlabeled ligands were dissolved in ethanol and the concentrations determined using UV spectrophotometry (1,25(OH)2D3: molar extinction coefficient=18,200 and 1max=265 nm; Analogs: molar extinction coefficient=42,000 and 1max=252 nm). Radiolabeled ligand (^3H-1,25(OH)2D3, ˜159 Ci/mmole) was added in ethanol at a final concentration of 1 nM.
Radiolabeled and unlabeled ligands were added to 100 mcl of the diluted protein at a final ethanol concentration of ≦10%, mixed and incubated overnight on ice to reach binding equilibrium. The following day, 100 mcl of hydroxylapatite slurry (50%) was added to each tube and mixed at 10-minute intervals for 30 minutes. The hydroxyapaptite was collected by centrifugation and then washed three times with Tris-EDTA buffer (50 mM Tris, 1.5 mM EDTA, pH 7.4) containing 0.5% Titron X-100. After the final wash, the pellets were transferred to scintillation vials containing 4 ml of Biosafe II scintillation cocktail, mixed and placed in a scintillation counter. Total binding was determined from the tubes containing only radiolabeled ligand.

[4] = tested on: 24-hydroxylase (24OHase) gene promoter; test: In vitro transcription assay (luciferase reporter in ROS 17/2.8 cells); assay type: cell-based; conditions: FIG. 3; for stimulation of gene transcription compared to the native hormone: in words
Protocol: In Vitro Transcription Assay
Transcription activity was measured in ROS 17/2.8 (bone) cells that were stably transfected with a 24-hydroxylase (24OHase) gene promoter upstream of a luciferase reporter gene (Arbour et al., 1998). Cells were given a range of doses. Sixteen hours after dosing the cells were harvested and luciferase activities were measured using a luminometer. RLU=relative luciferase units.

Row | Structure (SMILES) | promoting HL-60 cell differentiation, times more potent than the native hormone [1] | bone strength compared to 2MD at 2.5 ng/kg body weight [2] | competition for binding to the VDR compared to the native hormone [3] | binding to the vitamin D receptor (VDR), times less active than the natural hormone [3] | stimulation of gene transcription compared to the native hormone [4] | stimulating gene transcription from the 24OHase gene promoter, times more effective than the natural hormone ([4]; relative to 1,25(OH)2D3)
1 | C=C1[C@H](O)CC(=C/C=C2\CCC[C@]3(C)[C@@H]([C@H](C)/C=C/[C@@H](O)C(C)(C)O)CC[C@@H]23)C[C@H]1O [WT-51, (22E)-(24R)-2-methylene-22-dehydro-1α,24,25-trihydroxy-19-nor-vitamin D3] | approximately 10 × | improves bone strength in ovariectomized rats to the same degree as 2MD | one log less than the native hormone | approximately 10 × | nearly one log more potent than the native hormone | approximately 10 ×
2 | C=C1[C@H](O)CC(=C/C=C2\CCC[C@]3(C)[C@@H]([C@H](C)/C=C/[C@H](O)C(C)(C)O)CC[C@@H]23)C[C@H]1O [WT-52, (22E)-(24S)-2-methylene-22-dehydro-1α,24,25-trihydroxy-19-nor-vitamin D3] |  |  | one log less than the native hormone | approximately 10 × | approximately the same activity as the native hormone | 
